Assay results from patent publication US11155546B2, “4,6,7-trisubstituted 1,2-dihydropyrrolo[3,4-c]pyridin/pyrimidin-3-one derivatives and uses thereof” (SHANGHAI HAIYAN PHARMACEUTICAL TECHNOLOGY CO., LTD., priority 2017, dated 2021).

Key:
[1] = biological target: BTK WT (Homo sapiens (Human), UniProt Q06187); test: Lantha screening kinase reaction, inhibition of BTK WT; assay type: biochemical
Experimental: The compound was predissolved in 100% DMSO. 10 mM drug stock solution was obtained by dissolution at room temperature and then serially diluted with 8 vol % DMSO solution to a final concentration of 10-0.005 μM. […] Among the wells, the kinase in the blank well was replaced with a reaction buffer and the kinase well (Enzyme) was not added with any drug. After shaking at 25° C. for 60 minutes in the dark, 10 μl of Detection Solution (mixture of Invitrogen PV3528 and EDTA, which was diluted with TR-FRET dilution buffer, the working concentration of EDTA was 5 mM, the working concentration of Lanthascreening Tb PY20 antibody was 0.2 nM) was added and shaken at room temperature for 30 minutes. The plates were read on a VictorX5 fluorescent plate reader (PerkinElmer) and the light absorption at an excitation wavelength of 340 nm and emission wavelengths of 500 nm and 520 nm was measured.
The calculation method for the inhibition ratio (referring to the specification of Invitrogen, PV3363) was as follows: Emission ratio (ER):Coumarin Emission (520 nm)/Fluorescein Emission (500 nm) 1. The inhibition ratio (IR):(ERkinase−ERtest compound)/(ERkinase−ERblank)×100%. 2.
The half-inhibitory concentration IC50 was calculated by fitting with XLFIT5.0 software (IDBS, UK).

[2] = biological target: wild-type EGFR kinase (Homo sapiens (Human), UniProt P00533); test: Wild type EGFR kinase inhibition test (z-lyte); assay type: biochemical; conditions: 10 μM ATP; read-out: EGFR WT IC50
From the text: All the following reagents used in z-lyte test are commercially available from Invitrogen.
The calculation method for the inhibition ratio (referring to the specification of Invitrogen, PV3363) was as follows: ER=Coumarin Emission(450 nm)/Fluorescein Emission(520 nm) 1. Phosphorylation ratio=(1−((ER×C3520nm−C3450nm)/((C1450nm−C3450nm)+ER×(C3520nm−C1520nm))))×100% 2. Inhibition ratio (IR)=(1−phosphorylation ratio of the test compound)/(phosphorylation ratio of C2))×100% 3.
The half-inhibitory concentration IC50 was calculated by fitting with XLFIT 5.0 software (IDBS, UK).

[3] = in vivo; conditions: male, ICR, mouse, in vivo, po, 30 mg/kg
Experimental: Test Animals: ICR mice, weight 28-30 g, male, totally 12, purchased from SLAC Laboratory Animal Co., Ltd. Mice were fasting one night before administration and freely fed 4 hours after administration.
Administration and Blood collection: 6 mice were administered intragastrically (PO) in a administered dosage of 30 mg/kg and a administered volume of 10 mL/kg. One administration route was subjected with 6 mice, blood samples of three mice were collected at one time point, and blood samples of another three mice were collected at alternate time point alternately. Blood was collected at 8 time points of 0.083, 0.25, 0.5, 1, 2, 4, 8, 24 h after administration respectively.
Animals were manually controlled at the time of collection and approximately 80 μL of blood was collected from the mice fundus venous plexus into a tube containing K2EDTA. The collected blood sample was put on wet ice, centrifuged within 15 min (8000 rpm, 4 min at 4° C.), and then the plasma sample was taken and stored at minus 20° C. till analysis. The compounds were prepared on the day of the experiment.
Solvent excipient information: DMSO (brand: Sigma, batch number: SHBD2446V); 2-hydroxypropyl-3-cyclodextrin (brand: Sigma, batch number: BCBN8227V), acetic acid (brand: Sinopharm Group, batch number: 20150616), sodium acetate (Brand: GENERAL-REAGENT, batch number: P1246037).
Preparation of a 3 mg/mL PO dosing solution: the solvent was a solution of 5% DMSO and 95% PH4.5 (sodium acetate-acetate) in 20% of 2-hydroxypropyl-β-cyclodextrin.
Analytical method: Plasma samples were analyzed by liquid chromatography-tandem mass spectrometry (Instrument type: Triple Quad™ 4000).
Preparation of the standard curve: preparing a standard curve of the test compound 1n the plasma matrix of ICR mice with a linear range of 1.00-3000 ng/mL, and preparing control samples at low, medium and high concentrations of 3 ng/mL, 500 ng/mL, and 2400 ng/mL respectively.
Treatment of biological samples: the frozen plasma samples were thawed on ice, and after the samples were thawed, they were vortexed on a vortex for 5 min. 20 μL of plasma sample was added to a 96-well plate, and 200 μL of acetonitrile (brand: Merck, Lot: 1854029643) containing an internal standard dexamethasone (Brand: NIFDC, Lot: 1N2V-DPGY, 2000 ng/mL) was added to precipitate protein, which were vortexed for 5 min, and then centrifuged at 3700 rpm and 4° C. for 15 min. The supernatant was extracted and twice centrifuged under the same conditions, and finally 2 μL of the supernatant solution was analyzed by LC-MS/MS.

Sequence of wild-type EGFR kinase (P00533 25-1210): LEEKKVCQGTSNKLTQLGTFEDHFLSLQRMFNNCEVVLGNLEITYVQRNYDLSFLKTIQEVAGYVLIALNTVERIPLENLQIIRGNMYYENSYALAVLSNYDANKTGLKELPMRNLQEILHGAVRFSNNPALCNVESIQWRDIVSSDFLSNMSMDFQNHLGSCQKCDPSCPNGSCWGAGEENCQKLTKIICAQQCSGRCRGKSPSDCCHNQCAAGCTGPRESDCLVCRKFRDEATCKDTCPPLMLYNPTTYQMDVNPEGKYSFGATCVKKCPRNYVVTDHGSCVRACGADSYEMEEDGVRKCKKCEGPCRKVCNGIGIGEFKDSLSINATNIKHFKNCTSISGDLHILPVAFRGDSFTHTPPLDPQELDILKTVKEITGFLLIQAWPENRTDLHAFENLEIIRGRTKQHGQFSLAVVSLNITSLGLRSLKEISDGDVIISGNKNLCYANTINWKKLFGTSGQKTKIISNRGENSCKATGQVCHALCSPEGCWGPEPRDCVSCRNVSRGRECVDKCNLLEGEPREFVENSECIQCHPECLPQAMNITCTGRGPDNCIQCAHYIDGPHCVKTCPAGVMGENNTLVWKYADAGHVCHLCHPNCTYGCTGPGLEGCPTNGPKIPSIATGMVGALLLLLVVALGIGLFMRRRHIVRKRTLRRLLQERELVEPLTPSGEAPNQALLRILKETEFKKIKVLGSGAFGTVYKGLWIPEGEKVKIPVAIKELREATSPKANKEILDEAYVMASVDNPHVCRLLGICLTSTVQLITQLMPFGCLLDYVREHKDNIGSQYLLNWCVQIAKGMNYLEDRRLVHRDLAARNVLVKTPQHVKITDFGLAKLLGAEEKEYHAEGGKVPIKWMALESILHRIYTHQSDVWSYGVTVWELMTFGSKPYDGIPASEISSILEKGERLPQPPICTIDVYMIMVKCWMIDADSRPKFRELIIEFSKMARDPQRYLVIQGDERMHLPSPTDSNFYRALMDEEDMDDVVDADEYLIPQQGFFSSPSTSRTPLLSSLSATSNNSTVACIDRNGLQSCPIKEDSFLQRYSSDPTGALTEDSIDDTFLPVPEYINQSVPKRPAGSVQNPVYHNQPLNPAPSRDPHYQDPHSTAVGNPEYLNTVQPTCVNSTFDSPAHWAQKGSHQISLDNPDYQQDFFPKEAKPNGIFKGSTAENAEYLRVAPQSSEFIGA
Sequence of BTK WT (Q06187 whole entry): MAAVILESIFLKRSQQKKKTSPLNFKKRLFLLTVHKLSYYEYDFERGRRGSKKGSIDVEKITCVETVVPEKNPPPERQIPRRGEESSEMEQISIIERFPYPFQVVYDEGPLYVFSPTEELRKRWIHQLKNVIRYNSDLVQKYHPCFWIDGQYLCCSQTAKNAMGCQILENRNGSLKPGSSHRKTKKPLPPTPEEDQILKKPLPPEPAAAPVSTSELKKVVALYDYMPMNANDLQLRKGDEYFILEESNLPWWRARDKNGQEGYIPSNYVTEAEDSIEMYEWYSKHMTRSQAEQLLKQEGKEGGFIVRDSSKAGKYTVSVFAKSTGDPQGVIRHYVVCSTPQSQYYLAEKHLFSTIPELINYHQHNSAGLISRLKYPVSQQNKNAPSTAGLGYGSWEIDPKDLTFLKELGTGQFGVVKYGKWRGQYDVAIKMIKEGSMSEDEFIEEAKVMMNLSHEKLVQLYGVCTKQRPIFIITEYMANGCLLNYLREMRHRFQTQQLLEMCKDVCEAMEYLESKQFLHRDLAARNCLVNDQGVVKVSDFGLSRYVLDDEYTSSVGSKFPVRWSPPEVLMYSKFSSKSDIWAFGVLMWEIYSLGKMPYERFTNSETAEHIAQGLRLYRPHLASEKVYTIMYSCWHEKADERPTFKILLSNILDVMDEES

SMILES | IC50 [1] [nM] | IC50 [2] [nM] | also measured
C=CC(=O)N1CCCC(Nc2nc(Nc3cnn(C)c3)c3c(c2F)CNC3=O)C1 (stereo not drawn) [Compound G-38] | 2 | 1290 | 
C=CC(=O)N1CCCC(N(C)c2nc3c(c(Nc4cnn(C)c4)n2)C(=O)NC3)C1 (stereo not drawn) [Compound G-75, 2-((1-acryloylpiperidin-3-yl)(methyl)amino)-4-(1-methyl-1H-pyrazole-4-ylamino)-6,7-dihydrogen-5H-pyrrolo[3,4-d]pyrimidine-5-one] | 6 | 1630 | 
C=CC(=O)N1CCC[C@@H](N(C)c2nc(-c3c[nH]c(C)n3)c3c(c2F)CNC3=O)C1 [Compound G-105] | 8 |  | 
C=CC(=O)N1CCCCC(Nc2nc(-c3cnn(C)c3)c3c(c2F)CNC3=O)C1 (stereo not drawn) [Compound G-47] | 75 | > 10000 | 
C=CC(=O)N1CCCC(N(C)c2nc(Nc3cnn(C)c3)c3c(c2F)CNC3=O)C1 (stereo not drawn) [Compound G-70, 6-((1-acryloylpiperidin-3-yl)(methyl)amino)-7-fluoro-4-(1-methyl-1H-pyrazole-4-ylamino)-1H-pyrrolo[3,4-c]pyridine-3(2H)-one] | 5 | > 10000 | 
C=CC(=O)N1C[C@H](Nc2nc(Nc3ccc(N4CCN(C5COC5)C[C@@H]4C)c(F)c3)c3c(c2F)CNC3=O)CC[C@@H]1C [Compound G-95] | 5 |  | 
C=CC(=O)N1CC2CN(c3nc(-c4cnn(C)c4)c4c(c3F)CNC4=O)CC2C1 (stereo not drawn) [Compound G-89] | 5 |  | 
C=CC(=O)N1CCC[C@@H](Nc2cc3c(c(Nc4ccc(N5CCOCC5)cc4)n2)C(=O)NC3)C1 [Compound G-107] | 5 |  | 
C=CC(=O)N1CCCC(N(CC)c2nc(Nc3ccc(N4CCOCC4)cc3)c3c(c2F)CNC3=O)C1 (stereo not drawn) [Compound G-74, 6-((1-acryloylpiperidin-3-yl)(ethyl)amino)-7-fluoro-4-(4-morpholin)-1H-pyrrolo[3,4-c]pyridine-3(2H)-one] | 7 | 1370 | 
C=CC(=O)N1C[C@H](N(C)c2nc(Nc3ccc(N4CCOCC4)c(F)c3)c3c(c2F)CNC3=O)CC[C@@H]1C [Compound G-92] | 8 |  | 
C=CC(=O)N1CCC[C@@H](Nc2nc(Nc3ccc(N4CCOC[C@@H]4C)cc3F)c3c(c2F)CNC3=O)C1 [Compound G-102] | 5 |  | 
C=CC(=O)N1CCCC(Nc2nc(Nc3ccc(N4CCC(O)C(C)(C)C4)cn3)c3c(c2F)CNC3=O)C1 (stereo not drawn) [Compound G-21] | 59 | 8310 | 
C=CC(=O)N1CCCC(Nc2nc(Nc3ccc(N4CCN(C5COC5)CC4C)cn3)c3c(c2F)CNC3=O)C1 (stereo not drawn) [Compound G-22] | 66 |  | 
C=CC(=O)N1CCC[C@H](Nc2nc(-c3cnn(C)c3)c3c(c2F)CNC3=O)[C@@H]1C [Compound G-109] | 62 | 6820 | 
C=CC(=O)N1CCC[C@@H](N(C)c2nc(-c3cnc(C)s3)c3c(c2F)CNC3=O)C1 [Compound G-94] | 20 |  | 
C=CC(=O)N1CCCC(Nc2nc(-c3cnc(C)s3)c3c(c2F)CNC3=O)C1 (stereo not drawn) [Compound G-53] | 51 | 7440 | 
C=CC(=O)N1CCCC(Nc2nc(Nc3ccc(N4CCN(C)CC4)nc3)c3c(c2F)CNC3=O)C1 (stereo not drawn) [Compound G-18] | 41 | 1600 | 
C=CC(=O)N1CCCC(Nc2nc(Nc3ccc(OCCO)cc3)c3c(c2F)CNC3=O)C1 (stereo not drawn) [Compound G-16] | 2 | 2750 | 
C=CC(=O)N1C[C@H](N(C)c2nc(-c3cnn(C)c3)c3c(c2F)CNC3=O)CC[C@H]1C [Compound G-99] | 18 |  | 
C=CC(=O)N1CCC[C@@H](Nc2nc(Nc3ccc(CN4CCOCC4)cc3)c3c(c2F)CNC3=O)C1 [Compound G-97] | 5 |  | 
C=CC(=O)N1CCC[C@@H](Nc2nc(Nc3ccc(N4CCN(C5COC5)C[C@@H]4C)c(F)c3)c3c(c2F)CNC3=O)C1 [Compound G-91] | 5 |  | AUC [3]: 3150 ng·h/mL; Cmax [3]: 2910 ng/mL; Tmax [3]: 0.25 h; bioavailability [3]: 21.3%; half-life [3]: 4.7 h
